# Calls of active or inactive are those of the source. How the calls were made is not given here.
# Test system: CCRIS mutagenicity, Ames/micronucleus/aberration tests
# Assay: CCRIS mutagenicity studies
# [1] = Test System: AMES SALMONELLA TYPHIMURIUM, Strain/Indicator: TA98, Metabolic Activation: NONE, Method: PREINCUBATION
# [2] = Test System: AMES SALMONELLA TYPHIMURIUM, Strain/Indicator: TA100, Metabolic Activation: NONE, Method: PREINCUBATION
compound,measurement,setting,value
O=C1C(Cl)=C(Cl)C(=O)C(Cl)=C1Cl,mutagenic call,"End Point: In vitro chromosomal aberrations, Test System: Chinese hamster lung (CHL/IU) cells, Metabolic Activation: Rat, Liver, S9, Phenobarbital and 5,6-benzoflavone",active; positive (structural changes and ploidy)
same,mutagenic call,[1],inactive; negative
same,mutagenic call,[2],inactive; negative
same,mutagenic call,"Test System: AMES SALMONELLA TYPHIMURIUM, Strain/Indicator: TA100, Metabolic Activation: RAT, LIVER, S-9, PHENOBARBITAL AND 5,6-BENZOFLAVONE, Method: PREINCUBATION",active; positive
same,mutagenic call,"Test System: AMES SALMONELLA TYPHIMURIUM, Strain/Indicator: TA102, Metabolic Activation: NONE, Method: PREINCUBATION",inactive; negative
same,mutagenic call,"Test System: AMES SALMONELLA TYPHIMURIUM, Strain/Indicator: TA102, Metabolic Activation: RAT, LIVER, S-9, PHENOBARBITAL AND 5,6-BENZOFLAVONE, Method: PREINCUBATION",inactive; negative
same,mutagenic call,"Test System: AMES SALMONELLA TYPHIMURIUM, Strain/Indicator: TA2637, Metabolic Activation: NONE, Method: PREINCUBATION",inactive; negative
same,mutagenic call,"Test System: AMES SALMONELLA TYPHIMURIUM, Strain/Indicator: TA2637, Metabolic Activation: RAT, LIVER, S-9, PHENOBARBITAL AND 5,6-BENZOFLAVONE, Method: PREINCUBATION",inactive; negative
same,mutagenic call,"Test System: Ames Salmonella typhimurium, Strain/Indicator: TA98, Metabolic Activation: None, Method: Preincubation",inactive; negative
same,mutagenic call,"Test System: Ames Salmonella typhimurium, Strain/Indicator: TA98, Metabolic Activation: Rat, Liver, S9, Sodium phenobarbital and 5,6-benzoflavone (10%), Method: Preincubation",inactive; negative
same,mutagenic call,"Test System: Ames Salmonella typhimurium, Strain/Indicator: TA100, Metabolic Activation: None, Method: Preincubation",inactive; negative
same,mutagenic call,"Test System: Ames Salmonella typhimurium, Strain/Indicator: TA100, Metabolic Activation: Rat, Liver, S9, Sodium phenobarbital and 5,6-benzoflavone (10%), Method: Preincubation",active; positive
same,mutagenic call,"Test System: Ames Salmonella typhimurium, Strain/Indicator: TA1535, Metabolic Activation: None, Method: Preincubation",inactive; negative
same,mutagenic call,"Test System: Ames Salmonella typhimurium, Strain/Indicator: TA1535, Metabolic Activation: Rat, Liver, S9, Sodium phenobarbital and 5,6-benzoflavone (10%), Method: Preincubation",inactive; negative
same,mutagenic call,"Test System: Ames Salmonella typhimurium, Strain/Indicator: TA1537, Metabolic Activation: None, Method: Preincubation",inactive; negative
same,mutagenic call,"Test System: Ames Salmonella typhimurium, Strain/Indicator: TA1537, Metabolic Activation: Rat, Liver, S9, Sodium phenobarbital and 5,6-benzoflavone (10%), Method: Preincubation",inactive; negative
same,mutagenic call,"Test System: E. coli, Strain/Indicator: WP2uvrA/pKM101, Metabolic Activation: None, Method: Preincubation",inactive; negative
same,mutagenic call,"Test System: E. coli, Strain/Indicator: WP2uvrA/pKM101, Metabolic Activation: Rat, Liver, S9, Sodium Phenobarbital and 5,6-benzoflavone, Method: Preincubation",inactive; negative
Nc1ccc(F)cc1F,mutagenic call,"Test System: AMES SALMONELLA TYPHIMURIUM, Strain/Indicator: TA97, Metabolic Activation: HAMSTER, LIVER, S-9, AROCLOR 1254 (10%), Method: PREINCUBATION",inactive; negative
same,mutagenic call,"Test System: AMES SALMONELLA TYPHIMURIUM, Strain/Indicator: TA97, Metabolic Activation: HAMSTER, LIVER, S-9, AROCLOR 1254 (30%), Method: PREINCUBATION",inactive; negative
same,mutagenic call,"Test System: AMES SALMONELLA TYPHIMURIUM, Strain/Indicator: TA97, Metabolic Activation: NONE, Method: PREINCUBATION",inactive; negative
same,mutagenic call,"Test System: AMES SALMONELLA TYPHIMURIUM, Strain/Indicator: TA97, Metabolic Activation: RAT, LIVER, S-9, AROCLOR 1254 (10%), Method: PREINCUBATION",inactive; negative
same,mutagenic call,"Test System: AMES SALMONELLA TYPHIMURIUM, Strain/Indicator: TA97, Metabolic Activation: RAT, LIVER, S-9, AROCLOR 1254 (30%), Method: PREINCUBATION",inactive; negative
same,mutagenic call,"Test System: AMES SALMONELLA TYPHIMURIUM, Strain/Indicator: TA98, Metabolic Activation: HAMSTER, LIVER, S-9, AROCLOR 1254 (10%), Method: PREINCUBATION",inactive; negative
same,mutagenic call,"Test System: AMES SALMONELLA TYPHIMURIUM, Strain/Indicator: TA98, Metabolic Activation: HAMSTER, LIVER, S-9, AROCLOR 1254 (30%), Method: PREINCUBATION",active; positive
same,mutagenic call,[1],inactive; negative
same,mutagenic call,"Test System: AMES SALMONELLA TYPHIMURIUM, Strain/Indicator: TA98, Metabolic Activation: RAT, LIVER, S-9, AROCLOR 1254 (10%), Method: PREINCUBATION",inactive; negative
same,mutagenic call,"Test System: AMES SALMONELLA TYPHIMURIUM, Strain/Indicator: TA98, Metabolic Activation: RAT, LIVER, S-9, AROCLOR 1254 (30%), Method: PREINCUBATION",inactive; negative
same,mutagenic call,"Test System: AMES SALMONELLA TYPHIMURIUM, Strain/Indicator: TA100, Metabolic Activation: HAMSTER, LIVER, S-9, AROCLOR 1254 (5 OR 10%), Method: PREINCUBATION",inactive; negative
same,mutagenic call,"Test System: AMES SALMONELLA TYPHIMURIUM, Strain/Indicator: TA100, Metabolic Activation: HAMSTER, LIVER, S-9, AROCLOR 1254 (30%), Method: PREINCUBATION",active; positive
same,mutagenic call,[2],inactive; negative
same,mutagenic call,"Test System: AMES SALMONELLA TYPHIMURIUM, Strain/Indicator: TA100, Metabolic Activation: RAT, LIVER, S-9, AROCLOR 1254 (5, 10 OR 30%), Method: PREINCUBATION",inactive; negative
same,mutagenic call,"Test System: AMES SALMONELLA TYPHIMURIUM, Strain/Indicator: TA1535, Metabolic Activation: HAMSTER, LIVER, S-9, AROCLOR 1254 (10%), Method: PREINCUBATION",inactive; negative
same,mutagenic call,"Test System: AMES SALMONELLA TYPHIMURIUM, Strain/Indicator: TA1535, Metabolic Activation: HAMSTER, LIVER, S-9, AROCLOR 1254 (30%), Method: PREINCUBATION",inactive; negative
same,mutagenic call,"Test System: AMES SALMONELLA TYPHIMURIUM, Strain/Indicator: TA1535, Metabolic Activation: NONE, Method: PREINCUBATION",inactive; negative
same,mutagenic call,"Test System: AMES SALMONELLA TYPHIMURIUM, Strain/Indicator: TA1535, Metabolic Activation: RAT, LIVER, S-9, AROCLOR 1254 (10%), Method: PREINCUBATION",inactive; negative
same,mutagenic call,"Test System: AMES SALMONELLA TYPHIMURIUM, Strain/Indicator: TA1535, Metabolic Activation: RAT, LIVER, S-9, AROCLOR 1254 (30%), Method: PREINCUBATION",inactive; negative
C=Cc1ccc(O)c(OC)c1,mutagenic call,"Test System: AMES SALMONELLA TYPHIMURIUM, Strain/Indicator: TA98, Metabolic Activation: HAMSTER, LIVER, S-9, AROCLOR 1254, Method: STANDARD PLATE",inactive; negative
same,mutagenic call,"Test System: AMES SALMONELLA TYPHIMURIUM, Strain/Indicator: TA98, Metabolic Activation: NONE, Method: STANDARD PLATE",inactive; negative
same,mutagenic call,"Test System: AMES SALMONELLA TYPHIMURIUM, Strain/Indicator: TA98, Metabolic Activation: RAT, LIVER, S-9, AROCLOR 1254, Method: STANDARD PLATE",inactive; negative
same,mutagenic call,"Test System: AMES SALMONELLA TYPHIMURIUM, Strain/Indicator: TA100, Metabolic Activation: HAMSTER, LIVER, S-9, AROCLOR 1254, Method: STANDARD PLATE",inactive; negative
same,mutagenic call,"Test System: AMES SALMONELLA TYPHIMURIUM, Strain/Indicator: TA100, Metabolic Activation: NONE, Method: STANDARD PLATE",inactive; negative
same,mutagenic call,"Test System: AMES SALMONELLA TYPHIMURIUM, Strain/Indicator: TA100, Metabolic Activation: RAT, LIVER, S-9, AROCLOR 1254, Method: STANDARD PLATE",inactive; negative
same,mutagenic call,"Test System: AMES SALMONELLA TYPHIMURIUM, Strain/Indicator: TA1535, Metabolic Activation: HAMSTER, LIVER, S-9, AROCLOR 1254, Method: STANDARD PLATE",inactive; negative
same,mutagenic call,"Test System: AMES SALMONELLA TYPHIMURIUM, Strain/Indicator: TA1535, Metabolic Activation: NONE, Method: STANDARD PLATE",inactive; negative
same,mutagenic call,"Test System: AMES SALMONELLA TYPHIMURIUM, Strain/Indicator: TA1535, Metabolic Activation: RAT, LIVER, S-9, AROCLOR 1254, Method: STANDARD PLATE",inactive; negative
same,mutagenic call,"Test System: AMES SALMONELLA TYPHIMURIUM, Strain/Indicator: TA1537, Metabolic Activation: HAMSTER, LIVER, S-9, AROCLOR 1254, Method: STANDARD PLATE",inactive; negative
same,mutagenic call,"Test System: AMES SALMONELLA TYPHIMURIUM, Strain/Indicator: TA1537, Metabolic Activation: NONE, Method: STANDARD PLATE",inactive; negative
same,mutagenic call,"Test System: AMES SALMONELLA TYPHIMURIUM, Strain/Indicator: TA1537, Metabolic Activation: RAT, LIVER, S-9, AROCLOR 1254, Method: STANDARD PLATE",inactive; negative
same,mutagenic call,"Test System: MOUSE LYMPHOMA, Strain/Indicator: L5178Y (TK+/TK-), Metabolic Activation: NONE, Method: SUSPENSION/PLATE",inactive; negative. reevaluation of results: equivocal
same,mutagenic call,"Test System: MOUSE LYMPHOMA, Strain/Indicator: L5178Y (TK+/TK-), Metabolic Activation: RAT, LIVER, S-9, AROCLOR 1254, Method: SUSPENSION/PLATE",inactive; negative. reevaluation of results: negative
